Measurements published in US8349899B1 (Arrowhead Center, Inc., priority 2008, dated 2013).
Like-named read-outs stand apart in the source and are kept apart here.

How the values were obtained:
[1] = tested on: HeLa cervical adenocarcinoma cells; assay: bipolar spindle formation in HeLa cells; type: cell-based, human; settings: for IC50: read-out: Bipolar spindle formation IC50; for inhibitory activity in the cell-based assay: HeLa bipolar spindle formation
Method: (§1) Biochemical- and cell-based assays were used to evaluate the inhibitory activities of the STLC analogs. Using a commercially available assay from Cytoskeleton, Inc, analogs were assayed for their ability to block the microtubule-activated ATPase activity of recombinant human EG5 motor domain. In parallel, HeLa cells were treated for four hours with a range of concentrations, and then fixed, stained for microtubules, and mitotic cells were scored for spindle bipolarity.

[2] = biological target: T1, recombinant human EG5 motor domain (Homo sapiens, UniProt P52732); assay: microtubule-activated Eg5 ATPase assay (Cytoskeleton, Inc); type: biochemical; settings: for inhibitory activity in the biochemical assay: Eg5 ATPase assay; for IC50: microtubule-activated ATPase activity of recombinant human EG5 motor domain
T1 construct: recombinant human EG5 motor domain; purchased Cytoskeleton, Inc
T1 sequence (P52732 18-359 limits assumed): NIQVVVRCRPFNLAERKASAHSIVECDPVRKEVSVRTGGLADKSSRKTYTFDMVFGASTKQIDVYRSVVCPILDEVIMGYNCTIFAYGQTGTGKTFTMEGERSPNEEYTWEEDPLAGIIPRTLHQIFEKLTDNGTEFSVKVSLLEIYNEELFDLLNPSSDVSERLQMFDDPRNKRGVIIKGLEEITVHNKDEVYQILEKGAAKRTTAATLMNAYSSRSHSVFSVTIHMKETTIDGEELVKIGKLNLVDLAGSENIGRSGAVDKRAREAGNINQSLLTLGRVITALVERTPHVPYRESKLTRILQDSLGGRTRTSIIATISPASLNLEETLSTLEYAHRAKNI
Method: as §1

[3] = Homo sapiens, HeLa cells treated with analog for 4 hours, scored for bipolar vs monopolar spindle formation

N[C@H](CO)CSC(c1ccccc1)(c1ccccc1)c1ccccc1 [Compound 1.1]
IC50 ([1]; Homo sapiens, HeLa, 4 h): 0.58 µM

COc1ccc(C(SC[C@@H](N)CO)(c2ccccc2)c2ccccc2)cc1 [Compound 1.3]
IC50 ([1]; Homo sapiens, HeLa, 4 h): 0.2 µM

N[C@@H](CSCC1c2ccccc2-c2ccccc21)C(=O)O [Compound 2.7, (R)-3-(((9H-fluoren-9-yl)methyl)thio)-2-aminopropanoic acid]
inhibitory activity in the biochemical assay [2]: no measurable activity | IC50 [2]: > 100 µM | inhibitory activity in the cell-based assay [1]: no measurable activity | IC50 [1, 3]: > 100 µM

N[C@@H](COC(c1ccccc1)(c1ccccc1)c1ccccc1)C(=O)O [Compound 2.8, (S)-2-amino-3-(trityloxy)propanoic acid]
IC50 [2]: 0.76 µM | IC50 [1, 3]: 0.85 µM

N[C@@H](CSC(c1ccccc1)c1ccccc1)C(=O)O [Compound 2.9, (R)-2-amino-3-(benzhydrylthio)propanoic acid]
inhibitory activity in the biochemical assay [2]: no measurable activity | IC50 [2]: > 100 µM | inhibitory activity in the cell-based assay [1]: no measurable activity | IC50 [1, 3]: > 100 µM

N[C@@H](CSC1c2ccccc2-c2ccccc21)C(=O)O [Compound 3.0, (R)-3-((9H-fluoren-9-yl)thio)-2-aminopropanoic acid]
inhibitory activity in the biochemical assay [2]: no measurable activity | IC50 [2]: > 100 µM | inhibitory activity in the cell-based assay [1]: no measurable activity | IC50 [1, 3]: > 100 µM

CC(=O)N[C@@H](CSC(c1ccccc1)(c1ccccc1)c1ccccc1)C(=O)O [Compound 3.1, (R)-2-acetamido-3-(tritylthio)propanoic acid]
inhibitory activity in the biochemical assay [2]: no measurable activity | IC50 [2]: > 100 µM | inhibitory activity in the cell-based assay [1]: no measurable activity | IC50 [1, 3]: > 100 µM

COC(=O)[C@@H](N)CSC(c1ccccc1)(c1ccccc1)c1ccccc1 [Compound 3.2, (R)-methyl 2-amino-3-(tritylthio)propanoate]
IC50 [2]: 0.51 µM | IC50 [1, 3]: 0.92 µM

NC(=O)[C@@H](N)CSC(c1ccccc1)(c1ccccc1)c1ccccc1 [Compound 3.3, (R)-2-amino-3-(tritylthio)propanamide]
IC50 [2]: 0.54 µM | IC50 [1, 3]: 0.67 µM

N[C@@H](CSC(c1ccccc1)(c1ccccc1)c1cccnc1)C(=O)O [Compound 3.4, (R)-2-amino-3-((diphenyl(pyridin-3-yl)methyl)thio)propanoic acid]
inhibitory activity in the biochemical assay [2]: no measurable activity | IC50 [2]: > 100 µM | inhibitory activity in the cell-based assay [1]: no measurable activity | IC50 [1, 3]: > 100 µM

C#CCNC(=O)[C@@H](N)CSC(c1ccccc1)(c1ccccc1)c1ccccc1 [Compound 3.5, (R)-2-amino-N-(prop-2-yn-1-yl)-3-(tritylthio)propanamide]
IC50 [2]: 0.49 µM | IC50 [1, 3]: 0.76 µM

CC(=O)N[C@@H](CSC(c1ccccc1)(c1ccccc1)c1ccccc1)C(N)=O [Compound 3.6, (R)-2-acetamido-3-(tritylthio)propanamide]
inhibitory activity in the biochemical assay [2]: no measurable activity | IC50 [2]: > 100 µM | inhibitory activity in the cell-based assay [1]: no measurable activity | IC50 [1, 3]: > 100 µM

CCCCNC(=O)[C@@H](N)CSC(c1ccccc1)(c1ccccc1)c1ccccc1 [Compound 3.8, (R)-2-amino-N-butyl-3-(tritylthio)propanamide]
IC50 [2]: 0.56 µM | IC50 [1, 3]: 0.68 µM

C#CCNC(=O)[C@@H](N)CSC(c1ccccc1)(c1ccccc1)c1ccc(OC)cc1 [Compound 4.0]
IC50 [2]: 0.31 µM | IC50 [1, 3]: 0.44 µM

COc1ccc(C(SC[C@H](N)C(=O)NCCOCCN)(c2ccccc2)c2ccccc2)cc1 [Compound 4.2, (R)-2-amino-N-(2-(2-aminoethoxy)ethyl)-3-(((4-methoxyphenyl)diphenylmethyl)thio)propanamide]
IC50 [2]: 0.28 µM | IC50 [1, 3]: 0.54 µM

(R)-2-amino-3-(((4-methoxyphenyl)diphenylmethyl)thio)propanamide [Compound 3.9]
inhibitory activity in the biochemical assay [2]: no measurable activity | inhibitory activity in the cell-based assay [1]: no measurable activity | IC50 ([1]; HeLa cells treated with analog for 4 hours, scored for bipolar vs monopolar spindle formation): > 100 µM
